Results as given in patent US10570184B2, “GLP-1/glucagon receptor co-agonists for medical use” (Novo Nordisk A/S, priority 2014, dated 2020).
Starred links: 1 amine or outer side, 2 acyl side, 3 side chain; linkers in the order of their positions; H or OH if unused. Non-standard residues stand in square brackets, D forms with d. Residues, ends and D or L forms follow the SMILES beside them. Groups on a side chain read outwards from the residue. *: point of attachment. C18 diacid = O=C(O)CCCCCCCCCCCCCCCCC(=O)*; γGlu = O=C(O)[C@H](CCC(=O)[*:2])N[*:1]; Ac4c = NC1(C(=O)O)CCC1; AEEA = NCCOCCOCC(=O)O; Aib = CC(C)(N)C(=O)O

Legend:
[1] = Assay (III) ThT fibrillation assay for physical stability; type: physicochemical; conditions: 250 μM in 10 mM HEPES buffer, 37° C., shaking 960 rpm
Summary of the method: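 Glucagon derivative at 250 μM in 10 mM HEPES pH 7.5 with 1 μM ThT was incubated at 37 °C under 960 rpm orbital shaking. Fluorescence (ex 444/em 485 nm) was read every 20 min and fitted for lag time (t0−2τ) and kapp (1/τ). Recovery was soluble peptide after centrifugation/filtration, by RP-HPLC, as percent of initial.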

human GLP-1 receptor = molecular target: T1, human GLP-1 receptor (Homo sapiens, UniProt P43220); assay: Assay (I)(a) GLP-1 receptor activation, CRE luciferase reporter gene assay in BHK cells; type: cell-based; conditions: without presence of serum albumin; read-out: GLP-1R EC50 (pM) [Assay (I)(a)]
T1 construct: expressed in transfected cells; host or cells: membranes of BHK cells (parent BHKTS13), clone FCW467-12A
Summary of the method: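 Stable BHK clone expressing human GLP-1 receptor with CRE-driven firefly luciferase, 5×10EE3 cells/well in medium with 2% ovalbumin and 0.2% Pluronic F-68. Compounds at 1×10EE-13 to 1×10EE-6 M final, 3 h at 37° C.; luminescence read, EC50 (pM) from four-parameter fit.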

T1 sequence (P43220 24-463): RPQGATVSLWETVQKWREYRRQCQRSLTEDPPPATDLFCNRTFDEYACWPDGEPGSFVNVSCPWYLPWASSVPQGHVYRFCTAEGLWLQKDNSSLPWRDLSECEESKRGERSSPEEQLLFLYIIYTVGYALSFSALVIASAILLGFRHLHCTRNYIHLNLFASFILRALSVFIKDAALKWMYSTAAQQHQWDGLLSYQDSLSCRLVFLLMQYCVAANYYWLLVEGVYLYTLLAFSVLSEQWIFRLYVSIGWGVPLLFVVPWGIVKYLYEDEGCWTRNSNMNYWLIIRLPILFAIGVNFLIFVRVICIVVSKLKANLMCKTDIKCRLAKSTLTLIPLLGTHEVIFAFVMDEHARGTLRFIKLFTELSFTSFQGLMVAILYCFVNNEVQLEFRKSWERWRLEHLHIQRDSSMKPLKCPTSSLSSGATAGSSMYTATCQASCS

Row | Structure (SMILES) | ThT Assay Lag time (h) [Assay (III), pH 7.5] [1] [h] | EC50 (human GLP-1 receptor) [pM]
1 | CC[C@H](C)[C@H](NC(=O)[C@H](CC(=O)O)NC(=O)[C@H](CO)NC(=O)[C@@H](NC(=O)[C@H](Cc1ccccc1)NC(=O)[C@@H](NC(=O)CNC(=O)[C@H](CCC(N)=O)NC(=O)C1(NC(=O)[C@@H](N)Cc2c[nH]cn2)CCC1)[C@@H](C)O)[C@@H](C)O)C(=O)N[C@@H](CO)C(=O)N[C@@H](CCCCN)C(=O)N[C@@H](Cc1ccc(O)cc1)C(=O)N[C@@H](CC(C)C)C(=O)N[C@@H](CCC(=O)O)C(=O)N[C@@H](CO)C(=O)N[C@@H](CCCNC(=N)N)C(=O)N[C@@H](CCCNC(=N)N)C(=O)N[C@@H](C)C(=O)N[C@@H](CCCNC(=N)N)C(=O)N[C@@H](CCC(=O)O)C(=O)N[C@@H](Cc1ccccc1)C(=O)N[C@H](C(=O)N[C@@H](CCC(N)=O)C(=O)N[C@@H](Cc1c[nH]c2ccccc12)C(=O)N[C@@H](CC(C)C)C(=O)N[C@H](C(=O)N[C@@H](CCCCNC(=O)CC[C@H](NC(=O)CC[C@H](NC(=O)COCCOCCNC(=O)COCCOCCNC(=O)CC[C@H](NC(=O)CC[C@H](NC(=O)CCCCCCCCCCCCCCCCC(=O)O)C(=O)O)C(=O)O)C(=O)O)C(=O)O)C(=O)N[C@H](C(N)=O)[C@@H](C)O)[C@@H](C)CC)C(C)C [Chem. 26, N^ε28-[(4S)-4-carboxy-4-[[(4S)-4-carboxy-4-[[2-[2-[2-[[2-[2-[2-[[(4S)-4-carboxy-4-[[(4S)-4-carboxy-4-(17-carboxyheptadecanoylamino)butanoyl]amino]butanoyl]amino]ethoxy]ethoxy]acetyl]amino]ethoxy]ethoxy]acetyl]amino]butanoyl]amino]butanoyl]-[Acb2,Ile10,Glu15,Arg20,Glu21,Ile27,Lys28]-Glucagon amide] (H-H[Ac4c]QGTFTSDISKYLESRRAREFVQWLIK([γGlu-γGlu-AEEA-AEEA-γGlu-γGlu-C18 diacid])T-NH2; N-terminus assumed) | 45.0 | 2
2 | CC[C@H](C)[C@H](NC(=O)[C@H](CC(C)C)NC(=O)[C@H](Cc1c[nH]c2ccccc12)NC(=O)[C@H](CCC(N)=O)NC(=O)[C@@H](NC(=O)[C@H](Cc1ccccc1)NC(=O)[C@H](CC(=O)O)NC(=O)[C@H](CCCNC(=N)N)NC(=O)[C@H](C)NC(=O)[C@H](CCCNC(=N)N)NC(=O)[C@H](CCCNC(=N)N)NC(=O)[C@H](C)NC(=O)[C@H](CC(=O)O)NC(=O)[C@H](CC(C)C)NC(=O)[C@H](Cc1ccc(O)cc1)NC(=O)[C@H](CCCCN)NC(=O)[C@H](CO)NC(=O)[C@H](CC(C)C)NC(=O)[C@H](CC(=O)O)NC(=O)[C@H](CO)NC(=O)[C@@H](NC(=O)[C@H](Cc1ccccc1)NC(=O)[C@@H](NC(=O)CNC(=O)[C@H](CCC(N)=O)NC(=O)C(C)(C)NC(=O)[C@@H](N)Cc1c[nH]cn1)[C@@H](C)O)[C@@H](C)O)C(C)C)C(=O)N[C@@H](CC(N)=O)C(=O)N[C@@H](CCCCNC(=O)CC[C@H](NC(=O)CC[C@H](NC(=O)COCCOCCNC(=O)COCCOCCNC(=O)CC[C@H](NC(=O)CCCCCCCCCCCCCCCCC(=O)O)C(=O)O)C(=O)O)C(=O)O)C(N)=O [Chem. 20, N^ε29-[(4S)-4-carboxy-4-[[(4S)-4-carboxy-4-[[2-[2-[2-[[2-[2-[2-[[(4S)-4-carboxy-4-(17-carboxyheptadecanoylamino)butanoyl]amino]ethoxy]ethoxy]acetyl]amino]ethoxy]ethoxy]acetyl]amino]butanoyl]amino]butanoyl]-[Aib2,Leu10,Ala16,Arg20,Ile27,Lys29]-Glucagon amide] (H-H[Aib]QGTFTSDLSKYLDARRARDFVQWLINK([γGlu-γGlu-AEEA-AEEA-γGlu-C18 diacid])-NH2; N-terminus assumed) | 45.0 | 4
3 | CC[C@H](C)[C@H](NC(=O)[C@H](CC(C)C)NC(=O)[C@H](Cc1c[nH]c2ccccc12)NC(=O)[C@H](C)NC(=O)[C@@H](NC(=O)[C@H](Cc1ccccc1)NC(=O)[C@H](CC(=O)O)NC(=O)[C@H](CCCNC(=N)N)NC(=O)[C@H](C)NC(=O)[C@H](CCCNC(=N)N)NC(=O)[C@H](CCCNC(=N)N)NC(=O)[C@H](C)NC(=O)[C@H](CC(=O)O)NC(=O)[C@H](CC(C)C)NC(=O)[C@H](Cc1ccc(O)cc1)NC(=O)[C@H](CCCCN)NC(=O)[C@H](CO)NC(=O)[C@H](Cc1ccc(O)cc1)NC(=O)[C@H](CC(=O)O)NC(=O)[C@H](CO)NC(=O)[C@@H](NC(=O)[C@H](Cc1ccccc1)NC(=O)[C@@H](NC(=O)CNC(=O)[C@H](CCC(N)=O)NC(=O)C(C)(C)NC(=O)[C@@H](N)Cc1c[nH]cn1)[C@@H](C)O)[C@@H](C)O)C(C)C)C(=O)N[C@@H](CCCCNC(=O)CC[C@H](NC(=O)CC[C@H](NC(=O)COCCOCCNC(=O)COCCOCCNC(=O)CC[C@H](NC(=O)CCCCCCCCCCCCCCCCC(=O)O)C(=O)O)C(=O)O)C(=O)O)C(=O)N[C@H](C(N)=O)[C@@H](C)O [Chem. 32, N^ε28-[(4S)-4-carboxy-4-[[(4S)-4-carboxy-4-[[2-[2-[2-[[2-[2-[2-[[(4S)-4-carboxy-4-(17-carboxyheptadecanoylamino)butanoyl]amino]ethoxy]ethoxy]acetyl]amino]ethoxy]ethoxy]acetyl]amino]butanoyl]amino]butanoyl]-[Aib2,Ala16,Arg20,Ala24,Ile27,Lys28]-Glucagon amide] (H-H[Aib]QGTFTSDYSKYLDARRARDFVAWLIK([γGlu-γGlu-AEEA-AEEA-γGlu-C18 diacid])T-NH2) | 45.0 | 2
4 | CC[C@H](C)[C@H](NC(=O)[C@H](CC(C)C)NC(=O)[C@H](Cc1c[nH]c2ccccc12)NC(=O)[C@H](C)NC(=O)[C@@H](NC(=O)[C@H](Cc1ccccc1)NC(=O)[C@H](CC(=O)O)NC(=O)[C@H](CCC(N)=O)NC(=O)[C@H](C)NC(=O)[C@H](CCCNC(=N)N)NC(=O)[C@H](CCCNC(=N)N)NC(=O)[C@H](CO)NC(=O)[C@H](CCC(=O)O)NC(=O)[C@H](CC(C)C)NC(=O)[C@H](Cc1ccc(O)cc1)NC(=O)[C@H](CCCCN)NC(=O)[C@H](CO)NC(=O)[C@H](Cc1ccc(O)cc1)NC(=O)[C@H](CC(=O)O)NC(=O)[C@H](CO)NC(=O)[C@@H](NC(=O)[C@H](Cc1ccccc1)NC(=O)[C@@H](NC(=O)CNC(=O)[C@H](CCC(N)=O)NC(=O)C(C)(C)NC(=O)[C@@H](N)Cc1c[nH]cn1)[C@@H](C)O)[C@@H](C)O)C(C)C)C(=O)N[C@@H](CCCCNC(=O)CC[C@H](NC(=O)CC[C@H](NC(=O)COCCOCCNC(=O)COCCOCCNC(=O)CC[C@H](NC(=O)CCCCCCCCCCCCCCCCC(=O)O)C(=O)O)C(=O)O)C(=O)O)C(=O)N[C@H](C(N)=O)[C@@H](C)O [Chem. 34, N^ε28-[(4S)-4-carboxy-4-[[(4S)-4-carboxy-4-[[2-[2-[2-[[2-[2-[2-[[(4S)-4-carboxy-4-(17-carboxyheptadecanoylamino)butanoyl]amino]ethoxy]ethoxy]acetyl]amino]ethoxy]ethoxy]acetyl]amino]butanoyl]amino]butanoyl]-[Aib2,Glu15,Ala24,Ile27,Lys28]-Glucagon amide] (H-H[Aib]QGTFTSDYSKYLESRRAQDFVAWLIK([γGlu-γGlu-AEEA-AEEA-γGlu-C18 diacid])T-NH2) | 45.0 | 3
5 | CC[C@H](C)[C@H](NC(=O)[C@H](CC(C)C)NC(=O)[C@H](Cc1c[nH]c2ccccc12)NC(=O)[C@H](CCC(N)=O)NC(=O)[C@@H](NC(=O)[C@H](Cc1ccccc1)NC(=O)[C@H](CCC(=O)O)NC(=O)[C@H](CCCNC(=N)N)NC(=O)[C@H](C)NC(=O)[C@H](CCCNC(=N)N)NC(=O)[C@H](CCCNC(=N)N)NC(=O)[C@H](CO)NC(=O)[C@H](CCC(=O)O)NC(=O)[C@H](CC(C)C)NC(=O)[C@H](Cc1ccc(O)cc1)NC(=O)[C@H](CCCNC(=N)N)NC(=O)[C@H](CO)NC(=O)[C@H](CC(C)C)NC(=O)[C@H](CC(=O)O)NC(=O)[C@H](CO)NC(=O)[C@@H](NC(=O)[C@H](Cc1ccccc1)NC(=O)[C@@H](NC(=O)CNC(=O)[C@H](CCC(N)=O)NC(=O)C1(NC(=O)[C@@H](N)Cc2c[nH]cn2)CCC1)[C@@H](C)O)[C@@H](C)O)C(C)C)C(=O)N[C@@H](CCCCNC(=O)CC[C@H](NC(=O)CC[C@H](NC(=O)COCCOCCNC(=O)COCCOCCNC(=O)CC[C@H](NC(=O)CC[C@H](NC(=O)CCCCCCCCCCCCCCCCC(=O)O)C(=O)O)C(=O)O)C(=O)O)C(=O)O)C(=O)N[C@H](C(N)=O)[C@@H](C)O [Chem. 17, N^ε28-[(4S)-4-carboxy-4-[[(4S)-4-carboxy-4-[[2-[2 [2-[[2-[2-[2-[[(4S)-4-carboxy-4-[[(4S)-4-carboxy-4-(17-carboxyheptadecanoylamino)butanoyl]amino]butanoyl]amino]ethoxy]ethoxy]acetyl]amino]ethoxy]ethoxy]acetyl]amino]butanoyl]amino]butanoyl]-[Acb2,Leu10,Arg12,Glu15,Arg20,Glu21,Ile27,Lys28]-Glucagon amide] (H-H[Ac4c]QGTFTSDLSRYLESRRAREFVQWLIK([γGlu-γGlu-AEEA-AEEA-γGlu-γGlu-C18 diacid])T-NH2) | 12.3 | 4
